From US11926826B2, “Twist signaling inhibitor compositions and methods of using the same” (City of Hope, priority 2016, dated 2024)

What was measured:
Assay type in all cases: cell-based, human
Vimentin mRNA = assay: qPCR after YTZ3-15 delivery of siTwist in SUM 1315: Vimentin; details: delivered via YTZ3-15; after one day
Experimental: (§1) Cell Culture, Transfection, and Stable Cell Line Production. SUM 1315 breast cancer cells were obtained from ATCC (Manassas, VA). Cells were maintained at 37° C., 5% CO2, and 90% humidity in a tissue culture incubator. Media for SUM 1315 cells consisted of a 50-50 mixture of DMEM and F12 media, supplemented with 5 μg/ml insulin, 10 ng/ml EGF, 5% fetal bovine serum, and 1% penicillin/streptomycin. Cells were passaged using 0.25% trypsin (Genesee Scientific, San Diego, CA) every 2-3 days as they reached confluency. […]
(§2) Quantitative PCR. […] RNA quantity and quality was measured and analyzed (with 260/280 nm and 260/230 nm spectra measurements) using a NanoDrop ND-1000 (Thermo Fisher Scientific, Waltham, MA). […] Quantitative RT-PCR was performed in quadruplicate using Maxima SYBR Green Master Mix (Thermo Fisher Scientific, Waltham, MA) in 25 μl reactions. […] Data were analyzed using Bio-Rad iQ5 software using the 2^−ΔΔ^Ct method and normalized to Actin. […]

TWIST1 [1] = assay: TWIST1 knockdown after Lipofectamine 2000 transfection in SUM 1315
Experimental: as §1, §2
Western Blot. […] Cells were pelleted, lysed in RIPA buffer, and protein concentration was determined using the BCA Assay (Thermo Fisher Scientific, Waltham, MA). […]

N-Cadherin mRNA = assay: qPCR after YTZ3-15 delivery of siTwist in SUM 1315: N-Cadherin; details: delivered via YTZ3-15; after seven days
Experimental: as §1, §2

TWIST1 [2] = assay: TWIST1 knockdown after Lipofectamine 2000 transfection of siRNA in MDA-MB-435S cells (western blot); details: unmodified vs passenger-strand modified si419
Experimental: Transient transfection of MDA-MB-435S GFP+ffluc was carried out using LIPOFECTAMINE® 2000 (Thermo Fisher Scientific, Waltham, MA) according to the manufacturer's instructions. LIPOFECTAMINE® 2000 transfection was used to confirm the functionality of the siRNA (si419 and si494) prior to testing their efficacy with MSNs. Transfection of siRNA with MSNs was carried out by incubating the MSNs with the siRNA overnight at 4° C. while rotating the tube constantly. The mixture consisted of 7 parts MSN (diluted to 500 ng/ul in sterile PBS) to 1 part siRNA (diluted to 10 uM). The final concentration for of MSNs and siRNA applied to cells was 17.5 ng/ul and 50 nM, respectively.
Western Blot. Following siRNA treatment described above, cells were lifted from tissue culture wells with 0.25% trypsin, pelleted, and lysed in RIPA buffer. Protein concentration was determined using a BCA Assay (Thermo Fisher Scientific). A total of 30 μg of protein per lane was run on 4% stacking and 12% resolving polyacrylamide gels. Following gel electrophoresis, protein was transferred to Immobilon-P PVDF membrane (Millipore, Billerica, MA) using a Trans-Blot SD Semi-Dry Transfer Cell (Bio-Rad, Hercules, CA). Membranes were then blocked with 5% dry milk dissolved in 1×PBS with 0.1% Tween-20. Antibodies were diluted in blocking buffer (1:250 for anti-TWIST1 and 1:2,500 for anti-Actin). […]

si419: anti-TWIST siRNA; passenger 5′-GGACAAGCUGAGCAAGAUU-3′ (SEQ ID No: 1), guide 5′-AAUCUUGCUCAGCUUGUCCUU-3′ (SEQ ID No: 2) (listed as RNA, chemistry not fully specified)
Vimentin mRNA level (Vimentin mRNA): nearly undetectable | TWIST1 knockdown (protein and mRNA) (TWIST1 [1]): knockdown of TWIST1 | N-Cadherin mRNA decrease (N-Cadherin mRNA): approximately 90% | knockdown (efficiency, FIG. 6) (TWIST1 [2]): approximately 80%
